Test results reported in ChEMBL document CHEMBL5331068, “Briarane-type diterpenoids, the inhibitors of osteoclast formation by interrupting Keap1-Nrf2 interaction and activating Nrf2 pathway” (Eur J Med Chem, 2023).
Activity calls are given as the source filed them. The calls are words filed in the database; no cut-off is given here.

Experiments:
[1] = system: BMDM; test: Anti-osteoclastogenesis activity in C57BL/6 mouse BMDM cells assessed as inhibition of RANKL-induced osteoclastogenesis at 10 uM incubated for 7 days in the presence of M-CSF by TRAP-staining based microscopic analysis relative to control; assay type: functional; details: for inhibition at 10 µM: C57BL/6, BMDM, 168 h, time 7 day
[2] = Cytotoxicity against C57BL/6 mouse BMDM cells incubated for 48 hrs by MTT assay; assay type: toxicity, cell-based; details: BMDM cells (bone marrow-derived macrophages)
[3] = molecular target: Kelch-like ECH-associated protein 1 (Homo sapiens, UniProt Q14145); test: Binding affinity to recombinant human Keap1 by SPR analysis
Chain of Kelch-like ECH-associated protein 1 (Q14145 whole entry): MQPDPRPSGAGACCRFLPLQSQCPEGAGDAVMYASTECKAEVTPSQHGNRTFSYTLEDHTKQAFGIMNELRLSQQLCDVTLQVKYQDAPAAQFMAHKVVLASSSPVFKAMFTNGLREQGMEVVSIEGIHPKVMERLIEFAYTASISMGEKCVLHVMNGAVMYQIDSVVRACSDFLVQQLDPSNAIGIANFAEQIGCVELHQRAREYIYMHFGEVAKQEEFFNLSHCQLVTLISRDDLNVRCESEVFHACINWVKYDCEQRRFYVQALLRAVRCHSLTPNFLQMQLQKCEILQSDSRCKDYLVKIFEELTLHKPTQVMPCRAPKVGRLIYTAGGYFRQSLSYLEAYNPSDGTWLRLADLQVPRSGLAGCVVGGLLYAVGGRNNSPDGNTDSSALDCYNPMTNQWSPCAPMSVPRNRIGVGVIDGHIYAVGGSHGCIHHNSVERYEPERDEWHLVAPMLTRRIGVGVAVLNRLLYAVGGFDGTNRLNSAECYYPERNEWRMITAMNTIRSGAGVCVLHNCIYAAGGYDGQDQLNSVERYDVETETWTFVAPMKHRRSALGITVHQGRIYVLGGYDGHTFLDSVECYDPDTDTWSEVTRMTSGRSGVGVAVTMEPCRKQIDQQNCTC

SMILES	inhibition at 10 µM [1] [%]	CC50 at 48 h [2] [µM]	Activity [3]	inhibition ([1]; time 7.0 day)
CC(=O)O[C@H]1[C@@H](OC(=O)CC(C)C)[C@]2(CO2)[C@@H]2[C@H](OC(C)=O)[C@@]3(O)[C@H](/C=C(CO)\C=C/[C@H](OC(C)=O)[C@@]2(C)[C@H]1OC(C)=O)OC(=O)[C@@H]3C	55.8	> 50	–	–
C=C1/C=C\[C@H](OC(C)=O)[C@@]2(C)[C@@H](OC(C)=O)CC[C@]3(CO3)[C@@H]2[C@H](OC(C)=O)[C@]2(O)[C@@H](C)C(=O)O[C@H]2[C@H]1Cl	97.1	> 50	Active	–
C=C1[C@H]2O[C@]3([C@@H](C)C(=O)O[C@H]3[C@H]1Cl)[C@@H](OC(C)=O)[C@H]1[C@@]3(CO3)[C@H](OC(=O)CC(C)C)C[C@H](OC(C)=O)[C@]1(C)[C@@H](OC(C)=O)[C@@H]2OC(C)=O	51.7	> 50	–	–
CC(=O)O[C@H]1/C=C\C(CO)=C/[C@@H]2OC(=O)[C@H](C)[C@@]2(O)[C@@H](OC(C)=O)[C@H]2[C@@]3(CO3)[C@H](OC(=O)CC(C)C)C[C@H](OC(C)=O)[C@]12C	–	< 10	–	–
C=C1/C=C/[C@H](OC(C)=O)[C@@]2(C)[C@@H](OC(C)=O)CC[C@]3(CO3)[C@@H]2[C@H](OC(C)=O)[C@]2(O)[C@@H](C)C(=O)O[C@H]2[C@H]1Cl [JUNCEELLOLIDE C]	75	> 50	–	–
C=C1CC[C@H](OC(C)=O)[C@]2(C)[C@@H](OC(C)=O)C[C@@H](OC(C)=O)/C(C)=C\[C@@H]3OC(=O)[C@H](C)[C@@]3(O)[C@@H](OC(C)=O)[C@@H]12	58.7	> 50	–	–
C=C1/C=C/[C@H](OC(C)=O)[C@@]2(C)[C@@H](OC(C)=O)C[C@@H](OC(=O)CC(C)C)[C@]3(CO3)[C@@H]2[C@H](OC(C)=O)[C@]2(O)[C@@H](C)C(=O)O[C@H]2[C@H]1Cl [GEMMACOLIDE I]	62.2	> 50	–	–
C=C1CC[C@H](OC(=O)CC(C)C)[C@]2(C)[C@@H](OC(C)=O)C[C@@H](OC(C)=O)/C(C)=C\[C@@H]3OC(=O)[C@H](C)[C@@]3(O)[C@@H](OC(C)=O)[C@@H]12	68	> 50	–	–
CC(=O)O[C@H]1/C=C\C(COC(=O)CC(C)C)=C/[C@@H]2OC(=O)[C@H](C)[C@@]2(O)[C@@H](OC(C)=O)[C@H]2[C@@]3(CO3)[C@H](OC(=O)CC(C)C)C[C@H](OC(C)=O)[C@]12C	25	> 50	–	–
C=C1[C@H]2O[C@]3([C@@H](C)C(=O)O[C@H]3[C@H]1Cl)[C@@H](OC(C)=O)[C@H]1[C@@]3(CO3)[C@H](OC(C)=O)C[C@H](OC(C)=O)[C@]1(C)[C@@H](OC(C)=O)[C@@H]2OC(C)=O	37.1	> 50	Active	–
CC(=O)O[C@H]1/C=C\C(CO)=C/[C@@H]2OC(=O)[C@H](C)[C@@]2(O)[C@@H](OC(C)=O)[C@H]2[C@@](O)(CO)[C@H](O)[C@H](OC(=O)CC(C)C)[C@H](OC(C)=O)[C@]12C	62.8	> 50	inactive	–
CCOCC1=C/[C@@H]2OC(=O)[C@H](C)[C@@]2(O)[C@@H](OC(C)=O)[C@H]2[C@@]3(CO3)[C@H](OC(=O)CC(C)C)C[C@H](OC(C)=O)[C@]2(C)[C@@H](OC(C)=O)/C=C\1	51.2	> 50	–	–
C=C1[C@H](OC(C)=O)C[C@H](OC(C)=O)[C@@]2(C)[C@@H](OC(C)=O)C[C@@H](OC(C)=O)[C@]3(CO3)[C@@H]2[C@H](OC(C)=O)[C@]2(O)[C@@H](C)C(=O)O[C@H]2[C@H]1Cl	80.8	> 50	–	–
CC(=O)O[C@H]1/C=C\C(CCl)=C/[C@@H]2OC(=O)[C@H](C)[C@@]2(O)[C@@H](OC(C)=O)[C@H]2[C@@]3(CO3)[C@H](OC(C)=O)C[C@H](OC(=O)CC(C)C)[C@]12C	18	> 50	–	–
C=C1[C@H](Cl)[C@@H]2OC(=O)[C@H](C)[C@]23O[C@]1(O)C[C@H](OC(C)=O)[C@@]1(C)[C@@H](OC(C)=O)C[C@@H](OC(C)=O)[C@]2(CO2)[C@@H]1[C@@H]3OC(C)=O	29.3	> 50	Active	–
CC(=O)O[C@H]1/C=C\C(CO)=C/[C@@H]2OC(=O)[C@H](C)[C@@]2(O)[C@@H](OC(C)=O)[C@H]2[C@@]3(CO3)[C@H](OC(C)=O)C[C@H](OC(C)=O)[C@]12C	–	< 10	–	–

SMILES	inhibition at 10 µM [1] [%]	CC50 at 48 h [2] [µM]	Activity [3]	inhibition ([1]; time 7.0 day)
C=C1[C@H]2O[C@]3([C@H](C)C(=O)O[C@H]3[C@H]1Cl)[C@@H](OC(C)=O)[C@H]1[C@]3(CC[C@H](OC(C)=O)[C@]1(C)[C@@H](OC(C)=O)[C@@H]2OC(C)=O)CO3	12.2	> 50	–	–
C=C1CC[C@H](OC(C)=O)[C@]2(C)[C@@H](OC(C)=O)CC/C(C)=C\[C@@H]3OC(=O)[C@H](C)[C@@]3(O)[C@@H](OC(C)=O)[C@@H]12	64.5	> 50	–	–
CC(=O)O[C@H]1[C@@H](OC(=O)CC(C)C)[C@](O)(CO)[C@@H]2[C@H](OC(C)=O)[C@@]3(O)[C@H](/C=C(CCl)\C=C/[C@H](OC(C)=O)[C@@]2(C)[C@H]1OC(C)=O)OC(=O)[C@@H]3C	20.9	> 50	inactive	–
C=C1CC[C@H](OC(C)=O)[C@]2(C)[C@@H](OC(C)=O)C[C@@H](OC(C)=O)/C(CO)=C\[C@@H]3OC(=O)[C@H](C)[C@@]3(O)[C@@H](OC(C)=O)[C@@H]12	40.7	> 50	–	–
C=C1/C=C\[C@@H](OC(=O)COC(=O)CC(C)C)[C@@]2(C)[C@@H](OC(C)=O)[C@@H](OC(C)=O)[C@@H](OC(=O)CC(C)C)[C@]3(CO3)[C@@H]2[C@H](OC(C)=O)[C@]2(O)[C@@H](C)C(=O)O[C@H]2C1Cl (some centres not stated)	84.3	> 50	–	–
CCOCC1=C/[C@@H]2OC(=O)[C@H](C)[C@@]2(O)[C@@H](OC(C)=O)[C@H]2[C@@]3(CO3)[C@H](OC(=O)CC(C)C)C(OC(C)=O)[C@H](OC(C)=O)[C@]2(C)[C@@H](OC(=O)COC(=O)CC(C)C)/C=C\1 (some centres not stated)	41.9	> 50	–	–
C=C1CC[C@H](OC(C)=O)[C@@]2(C)[C@@H](OC(C)=O)C[C@@H](OC(=O)CC(C)C)[C@]3(CO3)[C@@H]2[C@H](OC(C)=O)[C@]2(O)[C@@H](C)C(=O)O[C@H]2[C@H]1Cl [JUNCENOLIDE J]	98.8	> 50	–	–
C=C1CC[C@H](OC(C)=O)[C@]2(C)[C@@H](OC(C)=O)C[C@@H](OC(C)=O)/C(C(=O)OC)=C\[C@@H]3OC(=O)[C@H](C)[C@@]3(O)[C@@H](OC(C)=O)[C@@H]12	49.4	> 50	–	–
CC(=O)O[C@H]1CC[C@]2(CO2)[C@@H]2[C@H](OC(C)=O)[C@@]3(O)[C@H](/C=C(/C)[C@H](OC(C)=O)C[C@H](OC(C)=O)[C@@]12C)OC(=O)[C@@H]3C [11ALPHA,20ALPHA-EPOXYJUNCEELLOLIDE]	58.1	> 50	–	–
CC(=O)O[C@H]1CC/C(C)=C\[C@@H]2OC(=O)[C@H](C)[C@@]2(O)[C@@H](OC(C)=O)[C@H]2[C@]3(CC[C@H](OC(C)=O)[C@]12C)CO3 [JUNCEELLOLIDE K]	86.6	> 50	–	–
CC(=O)O[C@H]1/C=C\C(CO)=C/[C@@H]2OC(=O)[C@H](C)[C@@]2(O)[C@@H](OC(C)=O)[C@H]2[C@@]3(CO3)[C@H](OC(C)=O)C[C@H](OC(=O)CC(C)C)[C@]12C	68	> 50	–	–
C=C1/C=C/[C@H](OC(C)=O)[C@@]2(C)[C@@H](OC(C)=O)C[C@@H](OC(C)=O)[C@]3(CO3)[C@@H]2[C@H](OC(C)=O)[C@]2(O)[C@@H](C)C(=O)O[C@H]2[C@H]1Cl [GEMMACOLIDE H]	13.1	> 50	–	–
CC(=O)OC1[C@@H](OC(=O)CC(C)C)[C@]2(CO2)[C@@H]2[C@H](OC(C)=O)[C@@]3(O)[C@H](/C=C(CCl)\C=C/[C@H](OC(=O)COC(=O)CC(C)C)[C@@]2(C)[C@H]1OC(C)=O)OC(=O)[C@@H]3C (some centres not stated)	86.6	> 50	–	–
CC(=O)O[C@H]1/C=C\C(CCl)=C/[C@@H]2OC(=O)[C@H](C)[C@@]2(O)[C@@H](OC(C)=O)[C@H]2[C@@]3(CO3)[C@H](OC(=O)CC(C)C)C[C@H](OC(C)=O)[C@]12C	29.1	> 50	–	–
C=C1[C@H](Cl)[C@@H]2OC(=O)[C@H](C)[C@]23O[C@]1(O)C[C@H](OC(C)=O)[C@@]1(C)[C@@H](OC(C)=O)C[C@@H](OC(=O)CC(C)C)[C@]2(CO2)[C@@H]1[C@@H]3OC(C)=O	–	> 50	–	inactive
C=C1CC[C@H](OC(C)=O)[C@]2(C)[C@@H](OC(C)=O)C[C@@H](OC(C)=O)/C(COC(=O)CC(C)C)=C\[C@@H]3OC(=O)[C@H](C)[C@@]3(O)[C@@H](OC(C)=O)[C@@H]12	91.3	> 50	–	–
